We go through 23 compounds from patent publication US20050054582A1, “Para-amino benzoic acids as integrin antagonists” (priority 2001, published 2005).

One may read the IC50 as the concentration that gives 50% inhibition. By melting point is commonly meant the temperature, or range, at which the solid turns liquid.

Each structure is given as a SMILES string. Read-outs that look alike come from different tables or passages of the source.

In series [1] the test system is adhesion of Ramos cells to VCAM-1. In words: Adhesion of Ramos cells to immobilized VCAM-1 (domains 1-3). It counts as cell-based. The settings on record: Homo sapiens. The text has this:
In Vitro Assay: Adhesion of Ramos Cells to Immobilized VCAM-1 (Domains 1-3) Preparation of VCAM-1 (Extracellular Domains 1-3)
Complementary DNA (cDNA) encoding 7-domain form of VCAM-1 (GenBank accession #M60335) was obtained using Rapid-Screen™ cDNA library panels (OriGene Technologies, Inc) at Takara Gene Analysis Center (Shiga, Japan). The primers used were 5′-CCAAGGCAGAGTACGCAAAC-3′ (sense) and 5′-TGGCAGGTATTATTAAGGAG-3′ (antisense). PCR amplification of the 3-domain VCAM-1 cDNA was perform using Pfu DNA polymerase (Stratagene) with the following sets of primers: (U-VCAMd1-3) 5′-CCATATGGTACCTGATCAATTTAAAATCGAGACCACCCCAGAA-3′; (L-VCAMdl-3) 5-CCATATAGCAATCCTAGGTCCAGGGGAGATCTCAACAGTAAA-3′. PCR cycle was 94° C. for 45 sec, 55° C. for 45 sec, 72° C. for 2 min, repeating 15 cycles. After the purification of the PCR product, the fragment was digested with KpnI-AvrII. The digested fragment was ligated into pBluescript IISK(−) (Strategene), which was linearized by digesting with KpnI-XhoI. The ligation was followed by transformation to a Dam/Dcm methylase-free E. coli strain SCS110 (Strategene) to create the donor plasmid […]. To direct VCAM-1 molecule into the insect cell secretory pathway, the VCAM-1 coding sequence was fused to signal peptide sequence of honeybee melittin. The resulting melittin-VCAM fusion was placed in correct orientation to the baculovirus polyhedrin promoter. Baculovirus transfer vector containing first 3-domain form VCAM-1 (pH10) was constructed by ligation of 0.9 kb fragment from AvrII/Klenow/BclI digests of pH7 into SalI/Klenow/BamHI digests of pMelBacB (Invitrogen). Recombinant baculovirus was generated by using Bac-N-Blue™ Transfection kit (Invitrogen) according to the manufacture's instruction. The recombinant virus was amplified by infection to High-Five™ insect cells for 5-6 days, and virus titer was determined by plaque assay.
High-Five™ insect cells were pelleted in a 225 ml conical tube by centrifugation at 1000 rpm for 5 min. After discarding the supernatant, the pellet was resuspended in 1.5×10^9 pfu (MOI=5) of high-titer virus solution, followed by incubation for 1.5 hours at room temperature. The cells were pelleted again and washed once in fresh Express Five™ serum free medium. The cells were pelleted again and finally, resuspended in 200 ml of fresh Express Five TM medium, transferred to a 1,000 ml shaker flask, and incubated in a shaker at 27° C., 130 rpm, for 48 hours before the culture supernatant was collected. The purification of 3-domain form of VCAM-1 from the culture supernatant was performed by one-step anion exchange chromatography. Protein concentration was determined by using Coomassie protein assay reagent (Pierce) according to the manufacture's instruction.
Preparation of VCAM-1 Coated Microtiter Plates
Recombinant human VCAM-1 (extracellular domains 1-3) was dissolved at 1.0 μg/ml in PBS. Each well of the microtiter plates (Nalge Nunc International, Fluoronunc Cert, 437958) was coated with 100 μl of substrate or for background control with buffer alone for 15 hours at 4 C. After discarding the substrate solution, the wells were blocked using 150 μl per well of block solution (Kirkegaard Perry Laboratories, 50-61-01) for 90 minutes. The plate was washed with wash buffer containing 24 mM Tris-HCl (pH 7.4), 137 mM NaCl, […] and 2 mM MnCl2 just before addition of the assay.
In Vitro Assay using Ramos Cells
Preparation of Fluorescence Labeled Ramos Cells:
Ramos cells (American Type Culture Collection, Clone CRL-1596) were cultured in RPMI 1640 medium (Nikken Bio Medical Laboratory, CM1101) supplemented with 10% fetal bovine serum (Hyclone, A-1119-L), 100 U/ml penicilin (Gibco BRL, 15140-122) and 100 μg/ml streptomycin (Gibco BRL, 15140-122) in a humidified incubator at 37° C. with 5% CO2. […]

Setting [2] is: observed IC50 value ranges, Table 4 does not say whether Ramos-VCAM-1 or Jurkat-VCAM-1, read-out: IC50.

The compound `O=C(CN(CCc1ccccc1)C(=O)Cc1ccc2nc(Nc3ccccc3)oc2c1)Nc1ccc(C(=O)O)cc1` [Example 75, 4-{[N-[(2-anilino-1,3-benzoxazol-6-yl)acetyl]-N-(2-phenylethyl)glycyl]-amino}benzoic acid] gave a melting point of 160 to 162 °C. For the same compound, the IC50 in series [1] (Ramos) is less than 500 nM.

The compound `Cc1ccccc1NC(=O)Nc1ccc(CC(=O)NC(CC(C)C)C(=O)Nc2ccc(C(=O)O)cc2)cc1` (stereo not drawn) [Example 37] yielded a melting point of 219 to 223 °C. In addition, the half-maximal inhibitory concentration (IC50) in series [1] (Ramos) was less than 500 nM.

Take `O=C(CN(CCc1ccc(Cl)c(Cl)c1)C(=O)Cc1ccc2nc(Nc3ccccc3)oc2c1)Nc1ccc(C(=O)O)cc1` [Example 79]: the melting point was 170 to 171 °C. In series [1] (Ramos), this compound displayed an IC50 of 2000 to 10000 nM.

In turn, `Cc1ccccc1Nc1nc2ccc(CC(=O)N(CCc3ccccc3)CC(=O)Nc3ccc(C(=O)O)cc3)cc2o1` [Example 82, 4-{[N-({2-[(2-methylphenyl)amino]-1,3-benzoxazol-6-yl}acetyl)-N-(2-phenylethyl)glycyl]amino}benzoic acid] gave a melting point of 232 to 233 °C. Also, the IC50 in series [1] (Ramos) was less than 500 nM.

Regarding `COCCCN(CC(=O)N(C)c1ccc(C(=O)O)cc1)C(=O)Cc1ccc(NC(=O)Nc2ccccc2C)cc1` [Example 53, 4-[(N-(3-methoxypropyl)-N-{[4-({[(2-methylphenyl)amino]carbonyl}amino)phenyl]acetyl}glycyl)(methyl)amino]benzoic acid], the melting point was in the range of 63 to 64 °C. Besides, the 50% inhibitory concentration (IC50) in series [1] (Ramos) fell in the range of 500 to 2000 nM.

Regarding `O=C(CN(CCc1ccccn1)C(=O)Cc1ccc2nc(Nc3ccccc3)oc2c1)Nc1ccc(C(=O)O)cc1` [Example 76, 4-({N-[(2-anilino-1,3-benzoxazol-6-yl)acetyl]-N-[2-(2-pyridinyl)ethyl]glycyl}amino)benzoic acid], the melting point is 252 to 253 °C. Moreover, the IC50 in series [1] (Ramos) was less than 500 nM.

Regarding `COCCCN(CC(=O)Nc1ccc(C(=O)O)cc1)C(=O)Cc1ccc(NC(=O)Nc2ccccc2C)cc1` [Example 38], the melting point fell in the range of 210 to 218 °C. The compound also gave a half-inhibitory concentration (IC50) in series [1] (Ramos) of less than 500 nM.

For the compound `COCCCN(CC(=O)N(CC(C)C)c1ccc(C(=O)O)cc1)C(=O)Cc1ccc(NC(=O)Nc2ccccc2C)cc1` [Example 52, 4-[isobutyl(N-(3-methoxypropyl)-V-{[4-({[(2-methylphenyl)amino]carbonyl}amino)phenyl]acetyl}glycyl)amino]benzoic acid], the melting point was 76 to 76.5 °C. This compound also gave an IC50 in series [1] (Ramos) greater than 10000 nM.

With `Cc1ccccc1Nc1nc2ccc(CC(=O)NCC(=O)Nc3ccc(C(=O)O)cc3)cc2o1` [Example 81, 4-{[N-({2-[(2-methylphenyl)amino]-1,3-benzoxazol-6-yl}acetyl)glycyl]-amino}benzoic acid], the melting point is 267 to 268 °C. Further, in series [1] (Ramos), the half-maximal inhibitory concentration (IC50) is less than 500 nM.

In turn, `Cc1ccccc1NC(=O)Nc1ccc(CC(=O)N[C@@H](CCCCN)C(=O)Nc2ccc(C(=O)O)cc2)cc1.O=C(O)C(F)(F)F` [Example 53a] came in with a melting point of 168 to 169 °C. Moreover, the concentration for half-maximal inhibition (IC50) in series [1] (setting [2]) was less than 500 nM.

As for `Cc1ccccc1NC(=O)Nc1ccc(CC(=O)N[C@@H](Cc2cscn2)C(=O)Nc2ccc(C(=O)O)cc2)cc1` [Example 46, 4-{[N-{[4-({[(2-methylphenyl)amino]carbonyl}amino)phenyl]acetyl}-3-(1,3-thiazol-4-yl)-L-alanyl]amino}benzoic acid], the IC50 in series [1] (Ramos) was less than 500 nM.

In the case of `Cc1ccccc1NC(=O)Nc1ccc(CC(=O)N[C@@H](Cc2cnc[nH]2)C(=O)Nc2ccc(C(=O)O)cc2)cc1` [Example 47, 4-[(N-{[4-({[(2-methylphenyl)amino]carbonyl}amino)phenyl]acetyl}-L-histidyl)amino]benzoic acid], the IC50 in series [1] (Ramos) was less than 500 nM.

As to `Cc1ccccc1NC(=O)Nc1ccc(CC(=O)N(CC(=O)Nc2ccc(C(=O)O)cc2)Cc2ccncc2)cc1` [Example 71, 4-{[N-{[4-({[(2-methylphenyl)amino]carbonyl}amino)phenyl]acetyl}-N-(4-yridinylmethyl)glycyl]amino}benzoic acid], the IC50 in series [1] (Ramos) is less than 500 nM.

In series [1] (Ramos), `COc1cc(CCN(CC(=O)Nc2ccc(C(=O)O)cc2)C(=O)Cc2ccc3nc(Nc4ccccc4)oc3c2)cc(OC)c1` [Example 77, 4-({N-[(2-anilino-1,3-benzoxazol-6-yl)acetyl]-N-[2-(3,5-dimethoxyphenyl)-ethyl]glycyl}amino)benzoic acid] returned an IC50 of less than 500 nM.

As to `Cc1ccccc1NC(=O)Nc1ccc(CC(=O)N(CCN2CCCC2)CC(=O)Nc2ccc(C(=O)O)cc2)cc1` [Example 64, 4-({N-{[4-({[(2-methylphenyl)amino]carbonyl}amino)phenyl]acetyl}-N-[2-(1-pyrrolidinyl)ethyl]glycyl}amino)benzoic acid], the concentration for half-maximal inhibition (IC50) in series [1] (setting [2]) is less than 500 nM.

In series [1] (Ramos), `Cc1ccccc1NC(=O)Nc1ccc(CC(=O)N(CCc2c[nH]cn2)CC(=O)Nc2ccc(C(=O)O)cc2)cc1` [Example 72, 4-[(N-[2-(1H-imidazol-4-yl)ethyl]-N-{[4-({[(2-methylphenyl)amino]carbonyl}amino)phenyl]acetyl}glycyl)amino]benzoic acid] had an IC50 of less than 500 nM.

Compound `Cc1ccccc1NC(=O)Nc1ccc(CC(=O)N[C@@H](CCN)C(=O)Nc2ccc(C(=O)O)cc2)cc1` [Example 40, 4-{[(2S)-4-amino-2-({[4-({[(2-methylphenyl)amino]carbonyl}amino)phenyl]acetyl}amino)butanoyl]amino}benzoic acid] registered an IC50 in series [1] (Ramos) of less than 500 nM.

Regarding `Cc1ccccc1NC(=O)Nc1ccc(CC(=O)N(CCCN(C)C)CC(=O)Nc2ccc(C(=O)O)cc2)cc1` [Example 56, 4-[(N-[3-(dimethylamino)propyl]-N-{[4-({[(2-methylphenyl)amino]carbonyl}amino)phenyl]acetyl}glycyl)amino]benzoic acid], in series [1] (Ramos), the IC50 was less than 500 nM.

`COCCN(CC(=O)Nc1ccc(C(=O)O)cc1)C(=O)Cc1ccc(NC(=O)Nc2ccccc2C)cc1` [Example 67, 4-[(N-(2-methoxyethyl)-N-{[4-({[(2-methylphenyl)amino]carbonyl}amino)-phenyl]acetyl}glycyl)amino]benzoic acid] displayed a half-maximal inhibitory concentration (IC50) in series [1] (Ramos) of less than 500 nM.

Take `Cc1ccccc1NC(=O)Nc1ccc(CC(=O)N[C@@H](CC(=O)O)C(=O)Nc2ccc(C(=O)O)cc2)cc1` [Example 42, 4-[(N-{[4-({[(2-methylphenyl)amino]carbonyl}amino)phenyl]acetyl}-L-α-aspartyl)amino]benzoic acid]: in series [1] (Ramos), the IC50 was less than 500 nM.

In series [1] (Ramos), `CCCN(CC(=O)Nc1ccc(C(=O)O)cc1)C(=O)Cc1ccc(NC(=O)Nc2ccccc2C)cc1` [Example 65, 4-[(N-{[4-({[(2-methylphenyl)amino]carbonyl}amino)phenyl]acetyl}-N-propylglycyl)amino]benzoic acid] showed an IC50 of less than 500 nM.

With `O=C(CN(Cc1ccccc1)C(=O)Cc1ccc2nc(Nc3ccccc3)oc2c1)Nc1ccc(C(=O)O)cc1` [Example 92], the IC50 in series [1] (Ramos) was in the range of 500 to 2000 nM.

As for `Cc1ccccc1NC(=O)Nc1ccc(CC(=O)N(CC(=O)Nc2ccc(C(=O)O)cc2)Cc2ccccc2)cc1` [Example 86, 4-[(N-benzyl-N-{[4-({[(2-methylphenyl)amino]carbonyl}amino)phenyl]-acetyl}glycyl)amino]benzoic acid], the IC50 in series [1] (Ramos) is less than 500 nM.
